Literature values, collected in patent US20120059013A1, “METHOD OF TREATING EARLY MORNING AKINESIA IN SUBJECTS HAVING PARKINSON'S DISEASE” (priority 2010, published 2012).

What was measured:
[1] = system: hepatic cytochrome P450 enzymes; conditions: humans
[2] = humans

Half-life [2]: long half-life
Oral bioavailability [2]: high oral bioavailablity
Structure (SMILES): CCCN[C@H]1CCc2nc(N)sc2C1 [Pramipexole, (S)-2-amino-4,5,6,7,-tetrahydro-6-(propylamino)benzothiazole]
Interaction with hepatic cytochrome P450 enzymes [1]: no significant interaction with hepatic cytochrome P450 enzymes
